Reference: US7968582B2, “5(S)-substituted pyrazoline compounds, their preparation and use as medicaments” (Laborotorios Del Dr. Esteve, S.A., priority 2005, dated 2011)

What was measured:
[1] = molecular target: T1, recombinant human cannabinoid 1 receptor (CB1) (Homo sapiens, UniProt P21554); assay: In vitro determination of antagonism to CB1-receptor, [35S]GTPγS binding assay; format: biochemical; conditions: compound 1 μM with agonist WIN 55,212-2 (3 nM to 3 μM); 100% = difference between maximal WIN 55,212-2 effect alone and plus Rimonabant (1 μM); CHO-hCB1 membranes
T1 construct: expressed in transfected cells; membrane preparation
Experimental: VI. In vitro Determination of Antagonism to CB1-Receptor
In order to obtain cells, culture flasks were washed twice with phosphate buffered saline and scraped. Then, cells were collected by centrifugation (200×g, 10 min) and stored dry at −80° C.
[^35S]GTPγS Binding Assay:
The reaction was performed in 96-well plates. […] Filter plates were dried and 30 μl of scintillation liquid was added, Radioactivity was determined using a Wallac Microbeta Trilux. Each experiment was performed at least in duplicate.
The average of basal [^35S]GTPγS binding was subtracted from all binding data.

[2] = Chronic administration to animals made obese by a simplified cafeteria diet; format: in vivo, rats
[3] = Effect of continued administration on body weight in rats; format: in vivo
Experimental: V. Determination of the Effect of Continued Administration of the Inventive Compounds on Body Weight in Rats
The weight of the animals was measured for 36 days, and the data grouped into 3 periods for analysis: Period 1, days 1-8 (period for adaptation of the animals to the environmental conditions: one week without treatment plus first day of treatment); Period 2. days 9-22 (treatment period: two weeks); Period 3, days 23-36 (escape treatment period: two weeks). The administration of the drugs started on day 8, immediately after the animal was weighted, and finished on day 21. The treatment period ranges between one day after first administration and one day after last administration. The drugs were administered i.p. once daily. For comparative purposes, absolute weights were transformed into relative percentages (each weight was divided by that of day 8 and multiplied by 100). […] All results are expressed as mean±S.E.M.
The dependence of body-weight (expressed as a percentage relative to day 8) on time (number of lays after inclusion in the study) and treatment was assessed by a two-way (time, treatment) analysis of variance (ANOVA) with repeated measures on the time factor. […] The differences between pairs of curves (treatments) were analyzed using appropriate contrasts within the ANOVA test. […]

T1 sequence (P21554 whole entry): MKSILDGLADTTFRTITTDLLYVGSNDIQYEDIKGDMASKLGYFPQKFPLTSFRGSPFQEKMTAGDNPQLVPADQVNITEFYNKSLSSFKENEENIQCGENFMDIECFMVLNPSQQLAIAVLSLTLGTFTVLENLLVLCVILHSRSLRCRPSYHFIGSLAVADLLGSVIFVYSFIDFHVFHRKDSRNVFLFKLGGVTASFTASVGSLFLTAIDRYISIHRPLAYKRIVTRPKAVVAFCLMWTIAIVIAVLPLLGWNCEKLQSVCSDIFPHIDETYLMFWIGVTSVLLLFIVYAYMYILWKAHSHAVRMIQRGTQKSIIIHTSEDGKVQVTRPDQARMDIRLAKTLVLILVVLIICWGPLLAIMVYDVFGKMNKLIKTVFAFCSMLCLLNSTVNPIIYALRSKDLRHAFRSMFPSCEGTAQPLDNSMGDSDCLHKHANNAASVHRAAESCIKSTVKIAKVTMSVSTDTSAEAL

Row | SMILES | Antagonism [%] [1] | body weight versus vehicle-treated controls ([2]; after 28 days of drug treatment, rats) | body weight ([2]; chronic administration, animals made obese by cafeteria diet (high-fat diet, chocolate, ground peanuts)) | effect on plasma lipids (triacylglycerol and glycerol) ([2]; following chronic administration, seems independent of weight loss) | body weight during treatment period ([3]; 10 mg/kg i.p. once daily, days 9-22, FIG. 1) | body weight in post-treatment period ([3]; after 10 mg/kg i.p. once daily, days 23-36, FIG. 1)
1 | O=C(NN1CCCCC1)C1=NN(c2ccc(Cl)cc2Cl)[C@H](c2ccc(Cl)cc2)C1 [A, (S)-N-piperidinyl-5-(4-chlorophenyl)-1-(2,4-dichlorophenyl)-4,5-dihydro-1H-pyrazole-3-carboxamide] | 43% | lower than those of the vehicle-treated controls | significantly decreased body weight | positive effect on plasma lipids | significant action during the treatment period | relatively fast recovery of weight
2 | Cl.O=C(NN1CCCCC1)C1=NN(c2ccc(Cl)cc2Cl)[C@H](c2ccc(Cl)cc2)C1 [A-Hydrochloride, Hydrochloride salt of (S)-N-piperidinyl-5-(4-chlorophenyl)-1-(2,4-dichlorophenyl)-4,5-dihydro-1H-pyrazole-3-carboxamide] | −7% |  |  |  |  | 
